Test results as given in patent US9920069B2, “Compounds for treatment of fluoroquinolone-resistant bacteria” (The Board of Trustees of the University of Illinois, priority 2014, dated 2018).
Converted amounts (≈) assume the structure as drawn. Marks after values point to notes of the source that are not given here.

Assays:
[1] = tested on: low level CIP resistant strains of S. aureus ATCC 29213 (ParC mutation); test: microbe, parasite or virus in culture; format: cell-based; conditions: Staphylococcus aureus, ATCC29213
[2] = tested on: A. baumannii KB304; conditions: starred: previously determined; cited from earlier work
[3] = tested on: A. baumannii KB349; conditions: starred: previously determined; cited from earlier work
[4] = tested on: Enterococcus ATCC 19433; test: organism not typed; format: cell-based, E. faecalis
[5] = tested on: Enterococcus ATCC 29212; test: organism not typed; format: cell-based, E. faecalis
[6] = tested on: S. aureus 29213 (WT GyrA and WT ParC); test: microbe, parasite or virus in culture; format: cell-based; conditions: Staphylococcus aureus; WT GyrA and WT ParC; read-out: MIC against S. aureus 29213
Description: Susceptibility testing was performed in triplicate using the microdilution broth method as outlined by the Clinical and Laboratory Standards Institute CLSI^52. MH broth was used.

[7] = physchem; conditions: organic solvent or mixture, thermodynamic from solid
[8] = physchem; conditions: pH 7.4 PBS; three replicates ± SEM
Description: Enough PBS was added to make a 1 mg/mL solution. Compounds were then assessed by LC-MS and compared to a calibration curve to determine the solubility. […] Data shown is from three independent replicates±SEM. […] Between DMSO additions, the vial was vortexed and sonicated.
The compound was vortexed for ˜30 seconds before being placed into a bath sonicator (Cole Parmer, ultrasonic cleaner) for 1 h. […] The tubes were vortexed again for 30 s before being centrifuged at maximum speed (13,000×g) for 10 minutes. The supernatant was then filtered through a 0.22 μm syringe filter (Millipore Millex MP). […] Three independent replicates of each compound were performed. A calibration curve for each compound was generated from 1-400 μM by dissolving the compound in DMSO and making dilutions of the stock in DMSO. […] The concentration of the samples was calculated based on the calibration curves.

Row | SMILES | MIC [6] [µg/mL] | solubility [7] [mM] | also measured
1 | O=C(O)c1cn(C2CC2)c2cc(N3CCNCC3)c(F)cc2c1=O [CIP, ciprofloxacin, reference compound] | – | – | MIC [1]: 4 to 8 µg/mL (≈ 12.1 to 24.1 µM); CIP MIC [2]: 24* ^ μg mL^−1; CIP MIC [3]: >32* μg mL^−1; MIC [4]: 2 µg/mL (≈ 6.04 µM); CIP (S/I/R) ([4]; ATCC 19433): S (sensitive (S) if it had an MIC≤4 μg mL^−1); MIC [5]: 0.5 to 2 µg/mL (≈ 1.51 to 6.04 µM); CIP (S/I/R) ([5]; ATCC 29212): S (sensitive (S) if it had an MIC≤4 μg mL^−1)
2 | CCc1cc(=O)n(C)c2c3c4c(cc12)c(C)cc(=O)n4CO3 [Compound 4] | 8 (≈ 27 µM) | 4.7 (≈ 1390 µg/mL) | Solubility in pH 7.4 PBS [8]: 53 μM
3 | Cc1cc(=O)n(C)c2c3c4c(cc12)c(C)cc(=O)n4C(C)O3 (stereo not shown) [Compound 5] | 4 (≈ 13.5 µM) | 3.4 (≈ 1010 µg/mL) | –
4 | CCCc1cc(=O)n2c3c(c4c(cc13)c(C)cc(=O)n4C)OC2 [Compound 6] | 16 (≈ 51.6 µM) | 6.4 (≈ 1990 µg/mL) | –
5 | CCCc1cc(=O)n(C)c2c3c4c(cc12)c(C)cc(=O)n4CO3 [Compound 7] | 16 (≈ 51.6 µM) | 5.8 (≈ 1800 µg/mL) | –
6 | CCCCCn1c(=O)cc(C)c2cc3c(C)cc(=O)n4c3c(c21)OC4 [Compound 9] | 32 (≈ 94.6 µM) | 26.9 (≈ 9100 µg/mL) | –
7 | CCCCCCn1c(=O)cc(C)c2cc3c(C)cc(=O)n4c3c(c21)OC4 [Compound 10] | > 64 | 56.7 (≈ 20000 µg/mL) | –
8 | Cc1cc(=O)n2c3c(c4c(cc13)c(C)cc(=O)n4CC(C)C)OC2 [Compound 11] | > 32 | 7.1 (≈ 2300 µg/mL) | –
